Data from PubChem BioAssay (NCI).
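Compound exposure: 48 hours, 5 concentrations, 96-well plates. GI50: concentration for 50% inhibition of growth. TGI: concentration producing complete growth inhibition.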

Tests used:
Assay in all cases: DTP human tumour cell line panel, 48 h
[1] = test system: IGROV1 ovarian
[2] = test system: MOLT-4 leukemia
[3] = test system: HCT-15 colon
[4] = test system: RXF 393 renal
[5] = test system: SNB-19 CNS
[6] = test system: A549 NSCLC
[7] = test system: BT-549 breast
[8] = test system: HL-60(TB) leukemia
[9] = test system: LOX IMVI melanoma
[10] = test system: SNB-75 CNS
[11] = test system: NCI-H522 lung
[12] = test system: OVCAR-5 ovarian
[13] = test system: UO-31 renal
[14] = test system: 786-0 renal
[15] = test system: T-47D breast
[16] = test system: COLO 205 colon
[17] = test system: HOP-92 NSCLC
[18] = test system: ACHN renal
[19] = test system: SR leukemia
[20] = test system: EKVX NSCLC
[21] = test system: MCF7 breast
[22] = test system: MDA-MB-231 breast
[23] = test system: PC-3 prostate
[24] = test system: SW-620 colon
[25] = test system: NCI-H460 lung
[26] = test system: HCT-116 colon
[27] = test system: SK-OV-3 ovarian
[28] = test system: A498 renal
[29] = test system: MDA-MB-435
[30] = test system: HCC-2998 colon
[31] = test system: NCI/ADR-RES ovarian
[32] = test system: SF-295 CNS
[33] = test system: HT29 colon
[34] = test system: DU-145 prostate
[35] = test system: MALME-3M melanoma
[36] = test system: NCI-H226 lung
[37] = test system: M14 melanoma
[38] = test system: U251 CNS
[39] = test system: SK-MEL-2 melanoma
[40] = test system: CCRF-CEM leukemia
[41] = test system: SN12C renal
[42] = test system: SK-MEL-5 melanoma
[43] = test system: NCI-H23 lung
[44] = test system: SF-268 CNS
[45] = test system: RPMI-8226 leukemia
[46] = test system: OVCAR-4 ovarian
[47] = test system: SK-MEL-28 melanoma
[48] = test system: CAKI-1 renal
[49] = test system: OVCAR-3 ovarian
[50] = test system: OVCAR-8 ovarian
[51] = test system: SF-539 CNS
[52] = test system: UACC-62 melanoma
[53] = test system: K-562 leukemia
[54] = test system: HOP-62 NSCLC
[55] = test system: UACC-257 melanoma
[56] = test system: KM12 colon

SMILES: Clc1ccc(Cn2c(CN3CCCC3)nc3ccccc32)cc1
- GI50 [1]: 23.3 µM
- TGI [1]: > 100 µM
- GI50 [2]: 28.3 µM
- TGI [2]: 95.9 µM
- GI50 [3]: 24.7 µM
- TGI [3]: 87.7 µM
- GI50 [4]: 14.1 µM
- TGI [4]: 30.2 µM
- GI50 [5]: 22.1 µM
- TGI [5]: 57.1 µM
- GI50 [6]: 26.9 µM
- TGI [6]: > 100 µM
- GI50 [7]: 18.1 µM
- TGI [7]: 38.8 µM
- GI50 [8]: 23.8 µM
- TGI [8]: 65.2 µM
- GI50 [9]: 17 µM
- TGI [9]: 34.1 µM
- GI50 [10]: 21.5 µM
- TGI [10]: 82.9 µM
- GI50 [11]: 16.3 µM
- TGI [11]: 33.7 µM
- GI50 [12]: 25.3 µM
- TGI [12]: 87.8 µM
- GI50 [13]: 12.4 µM
- TGI [13]: 36.5 µM
- GI50 [14]: 16.8 µM
- TGI [14]: 32.9 µM
- GI50 [15]: 19.7 µM
- TGI [15]: 83.5 µM
- GI50 [16]: 17.6 µM
- TGI [16]: 33.4 µM
- GI50 [17]: 6.03 µM
- TGI [17]: 29.5 µM
- GI50 [18]: 31.1 µM
- TGI [18]: > 100 µM
- GI50 [19]: 23.5 µM
- TGI [19]: 75.4 µM
- GI50 [20]: 17.5 µM
- TGI [20]: 67.7 µM
- GI50 [21]: 17 µM
- TGI [21]: 32.6 µM
- GI50 [22]: 18.8 µM
- TGI [22]: 41.8 µM
- GI50 [23]: 19.6 µM
- TGI [23]: 58.3 µM
- GI50 [24]: 14.8 µM
- TGI [24]: 33.3 µM
- GI50 [25]: 14.5 µM
- TGI [25]: 34.4 µM
- GI50 [26]: 11 µM
- TGI [26]: 24.7 µM
- GI50 [27]: 20 µM
- TGI [27]: 48.8 µM
- GI50 [28]: 11.3 µM
- TGI [28]: 31.3 µM
- GI50 [29]: 17.1 µM
- TGI [29]: 41.2 µM
- GI50 [30]: 21.6 µM
- TGI [30]: 54 µM
- GI50 [31]: 24.3 µM
- TGI [31]: > 100 µM
- GI50 [32]: 14.3 µM
- TGI [32]: 31.4 µM
- GI50 [33]: 15.5 µM
- TGI [33]: 38.4 µM
- GI50 [34]: 32.9 µM
- TGI [34]: > 100 µM
- GI50 [35]: 14.9 µM
- TGI [35]: 33.4 µM
- GI50 [36]: 14.8 µM
- TGI [36]: 41.8 µM
- GI50 [37]: 17.1 µM
- TGI [37]: 34 µM
- GI50 [38]: 15.2 µM
- TGI [38]: 31.4 µM
- GI50 [39]: 17.8 µM
- TGI [39]: 34.6 µM
- GI50 [40]: 27 µM
- TGI [40]: > 100 µM
- GI50 [41]: 30.1 µM
- TGI [41]: > 100 µM
- GI50 [42]: 13.3 µM
- TGI [42]: 26.2 µM
- GI50 [43]: 19 µM
- TGI [43]: 59.9 µM
- GI50 [44]: 30.8 µM
- TGI [44]: > 100 µM
- GI50 [45]: 16.4 µM
- TGI [45]: 41.7 µM
- GI50 [46]: 21.9 µM
- TGI [46]: 93.3 µM
- GI50 [47]: 24.6 µM
- TGI [47]: 65.5 µM
- GI50 [48]: 14.7 µM
- TGI [48]: 54.8 µM
- GI50 [49]: 18.4 µM
- TGI [49]: 47.7 µM
- GI50 [50]: 29.7 µM
- TGI [50]: > 100 µM
- GI50 [51]: 18 µM
- TGI [51]: 37.1 µM
- GI50 [52]: 17.4 µM
- TGI [52]: 47.3 µM
- GI50 [53]: 19.4 µM
- TGI [53]: > 100 µM
- GI50 [54]: 20.8 µM
- TGI [54]: 61.5 µM
- GI50 [55]: 20 µM
- TGI [55]: 55 µM
- GI50 [56]: 19.5 µM
- TGI [56]: 53.4 µM
